From the NIST ThermoML archive (doi:10.1016/j.tca.2012.07.004)

Test: xn = mol fraction of the nth substance listed
Settings: 101 kPa, Liquid; for mass density: Vibrating tube method; for viscosity: Vibrating wire viscometry; for speed of sound: ultrasonic interferometer

C[NH+](C)C.O=P([O-])(O)O [trimethylammonium dihydrogen phosphate] + CN1CCCC1=O
Settings	mass density, 298.15 K [kg/m3]	mass density, 303.15 K [kg/m3]	speed of sound, 298.15 K [m/s]	speed of sound, 303.15 K [m/s]	viscosity, 298.15 K [mPa·s]	viscosity, 303.15 K [mPa·s]
x1 = 0.0201	1041.43	1034.74	1573	1570	2.89	2.13
x1 = 0.0391	1053.47	1045.35	1586	1582	6.08	3.98
x1 = 0.1028	1089.8	1081.42	1610	1604	13.47	11.55
x1 = 0.1462	1113.92	1104.62	1626	1624	18.44	15.87
x1 = 0.211	1148.18	1136.57	1653	1644	25.04	21.79
x1 = 0.3267	1196.88	1183.7	1680	1671	30.52	26.64
x1 = 0.3746	1213.72	1200.24	1686	1679	31.03	27.3
x1 = 0.4469	1236.58	1223.4	1695	1692	31.16	26.98
x1 = 0.5751	1270.11	1257.32	1695	1692	27.7	24.1
x1 = 0.7093	1297.11	1286.38	1691	1690	21.12	18.07
x1 = 0.852	1325.36	1317.91	1673	1675	12.99	10.86
x1 = 0.9413	1342.23	1337.6	1665	1663	8.68	7.93
x1 = 0.9719	1348.52	1344.48	1665	1662	7.48	6.79
x1 = 1	1353.61	1350.62	1672	1660	7.64	6.46
